Assay results as given in the SangsterLogP compilation.

Experiment: method code SF-AS, from PMID: 6637504
Details: pH 5.0

SMILES	logD
O=c1c2c(nc3n1CCCCCC3)CCCCCC2	2.77
O=c1c2ccccc2nc2n1CCC2	1.07
CC1CCc2nc3c(c(=O)n2C1)CCC3 (stereo not drawn)	1.2
Cc1cccn2c(=O)c3c(nc12)CCC3	1.72
O=c1c2c(nc3n1CCC3)CCCC2	0.83
O=c1c2c(nc3n1CCCC3)CCC2	0.72
CCCc1c(C)nc2ccccn2c1=O	1.85
CC1CCCc2nc3c(c(=O)n21)CCC3 (stereo not drawn)	1.21
O=c1c2c(nc3ccccn13)CCC2	1.19
O=c1c2c(nc3n1CCC3)CCCCCC2	1.41
O=c1c2c(nc3n1CCC3)CCCCC2	1.25
CCc1c(C)nc2cc(C)cc(C)n2c1=O	1.8
CC1CCn2c(nc3c(c2=O)CCC3)C1 (stereo not drawn)	1.22
